Results reported in PubChem BioAssay (NCI).
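GI50 = concentration required for 50% inhibition of growth. TGI: concentration producing complete growth inhibition.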

Experiments:
Assay in all cases: NCI-60 cell line screen, 384-well format; in the data active = GI50 below about 0.43 µM; inactive = the rest
786-0 renal = test system: 786-0 renal
A498 renal = test system: A498 renal
A549 NSCLC = test system: A549 NSCLC
ACHN renal = test system: ACHN renal
BT-549 breast = test system: BT-549 breast
CAKI-1 renal = test system: CAKI-1 renal
CCRF-CEM leukemia = test system: CCRF-CEM leukemia
COLO 205 colon = test system: COLO 205 colon
DU-145 prostate = test system: DU-145 prostate
EKVX NSCLC = test system: EKVX NSCLC
HCC-2998 colon = test system: HCC-2998 colon
HCT-116 colon = test system: HCT-116 colon
HCT-15 colon = test system: HCT-15 colon
HL-60(TB) leukemia = test system: HL-60(TB) leukemia
HOP-62 NSCLC = test system: HOP-62 NSCLC
HOP-92 NSCLC = test system: HOP-92 NSCLC
HS 578T breast = test system: HS 578T breast
HT29 colon = test system: HT29 colon
IGROV1 ovarian = test system: IGROV1 ovarian
K-562 leukemia = test system: K-562 leukemia
KM12 colon = test system: KM12 colon
LOX IMVI melanoma = test system: LOX IMVI melanoma
M14 melanoma = test system: M14 melanoma
MALME-3M melanoma = test system: MALME-3M melanoma
MCF7 breast = test system: MCF7 breast
MDA-MB-231 breast = test system: MDA-MB-231 breast
MDA-MB-435 melanoma = test system: MDA-MB-435 melanoma
MDA-MB-468 breast = test system: MDA-MB-468 breast
MOLT-4 leukemia = test system: MOLT-4 leukemia

COc1cc2cc(C(=O)CCC(=O)O)sc2cc1OC
> 100 µM: TGI (786-0 renal) | TGI (A498 renal) | TGI (A549 NSCLC) | TGI (ACHN renal) | TGI (BT-549 breast) | TGI (CAKI-1 renal) | TGI (CCRF-CEM leukemia) | TGI (COLO 205 colon) | TGI (DU-145 prostate) | TGI (EKVX NSCLC) | TGI (HCC-2998 colon) | TGI (HCT-116 colon) | TGI (HCT-15 colon) | TGI (HOP-62 NSCLC) | TGI (HOP-92 NSCLC) | TGI (HS 578T breast) | TGI (HT29 colon) | TGI (IGROV1 ovarian) | TGI (K-562 leukemia) | TGI (KM12 colon) | TGI (LOX IMVI melanoma) | TGI (M14 melanoma) | TGI (MALME-3M melanoma) | TGI (MCF7 breast) | TGI (MDA-MB-231 breast) | TGI (MDA-MB-435 melanoma) | TGI (MDA-MB-468 breast) | TGI (MOLT-4 leukemia)
inactive: GI50 ([…]-0 renal) > 100 µM | GI50 (A498 renal) 33.6 µM | GI50 (A549 NSCLC) > 100 µM | GI50 (ACHN renal) > 100 µM | GI50 (BT-549 breast) > 100 µM | GI50 (CAKI-1 renal) > 100 µM | GI50 (CCRF-CEM leukemia) > 100 µM | GI50 (COLO 205 colon) > 100 µM | GI50 (DU-145 prostate) > 100 µM | GI50 (EKVX NSCLC) > 100 µM | GI50 (HCC-2998 colon) > 100 µM | GI50 (HCT-116 colon) > 100 µM | GI50 (HCT-15 colon) > 100 µM | GI50 (HL-60(TB) leukemia) 22.7 µM | GI50 (HOP-62 NSCLC) > 100 µM | GI50 (HOP-92 NSCLC) > 100 µM | GI50 (HS 578T breast) > 100 µM | GI50 (HT29 colon) > 100 µM | GI50 (IGROV1 ovarian) > 100 µM | GI50 (K-562 leukemia) > 100 µM | GI50 (KM12 colon) > 100 µM | GI50 (LOX IMVI melanoma) > 100 µM | GI50 (M14 melanoma) > 100 µM | GI50 (MALME-3M melanoma) > 100 µM | GI50 (MCF7 breast) > 100 µM | GI50 (MDA-MB-231 breast) > 100 µM | GI50 (MDA-MB-435 melanoma) > 100 µM | GI50 (MDA-MB-468 breast) > 100 µM | GI50 (MOLT-4 leukemia) > 100 µM
45.8 µM: TGI (HL-60(TB) leukemia)
